As usually defined, the IC50 is the midpoint of a concentration-inhibition curve.

IC50 data for 24 molecules are collected here from patent US10577363B2, “Substituted piperidine compounds” (EPIZYME, INC., priority 2014, dated 2020).

The experiment deals with SMYD3 (Homo sapiens (Human), UniProt Q9H7B4). The experiment is described as follows: SMYD3 biochemical assay (SPA, 3H-SAM methylation of MEKK2 protein substrate). To be noted: read-out: SMYD3 Biochem IC50 (μM)*. An excerpt: S-adenosylmethionine (SAM), S-adenosylhomocysteine (SAH), Tris, Tween20, dimethylsulfoxide (DMSO), bovine skin gelatin (BSG), and Tris(2-carboxyethyl)phosphine hydrochloride solution (TCEP) were purchased from Sigma-Aldrich at the highest level of purity possible. ^3H-SAM was purchase from American Radiolabeled Chemicals with a specific activity of 80 Ci/mmol. 384-well opaque white OptiPlates and SPA beads (Perkin Elmer, catalog # RPNQ0013) were purchased from PerkinElmer.
N-terminally GST-tagged MEKK2 (MAP3K2) protein corresponding to reference sequence AAF63496.3 was purchased from Life Technologies (catalog # PV4010). This protein was expressed in High Five insect cells and purified to >85% purity. Protein identity was confirmed by MS/MS analysis after proteolytic digestion. The protein sequence used was:
Full-length human SMYD3 isoform 1 (BAB86333) was inserted into a modified pET21b plasmid containing a His6 tag and TEV and SUMO cleavage sites.
E. coli (BL21 codonplus RIL strain, Stratagene) were transformed with plasmid pEPZ553 by mixing competent cells and plasmid DNA and incubating on ice for 30 minutes followed by heat shock at 42° C. for 1 minute and cooling on ice for 2 minutes. Transformed cells were grown and selected on LB agar with 100 μg/mL ampicillin and 17 μg/mL chloramphenicol at 37° C. overnight. A single clone was used to inoculate 200 mL of LB medium with 100 μg/mL ampicillin and 17 μg/mL chloramphenicol and incubated at 37° C. on an orbital shaker at 180 rpm. Once in log growth, the culture was diluted 1:100 into 2 L of LB medium and grown until OD600 was about 0.3 after which the culture was incubated at 15° C. and 160 rpm. Once OD600 reached about 0.4, IPTG was added to a final concentration of 0.1 mM and the cells were grown overnight at 15° C. and 160 rpm. Cells were harvested by centrifugation at 8000 rpm, for 4 minutes at 4° C. and stored at −80° C. for purification.
The column was washed with Buffer B (Buffer A plus 20 mM imidazole) and His-tagged SMYD3 was eluted with Buffer C (Buffer A plus 300 mM imidazole). The His tag, TEV and SUMO cleavage sites were removed generating native SMYD3 by addition of ULP1 protein at a ratio of 1:200 (ULP1:SMYD3). Imidazole was removed by dialysis overnight in Buffer A. The dialyzed solution was applied to a second Nickel column and the native SMYD3 protein was collected from the column flow-through. The flow-through was dialyzed in Buffer D (25 mM Tris, 5% glycerol, 5 mM β-mercaptoethanol, 50 mM NaCl, pH7.8) and ULP1 was removed using a Q sepharose fast flow column.
General Procedure for SMYD3 Enzyme Assays on MEKK2 Protein Substrate
The assays were all performed in a buffer consisting of 25 mM Tris-Cl pH 8.0, 1 mM TCEP, 0.005% BSG, and 0.005% Tween 20, prepared on the day of use. […] DMSO (1 ul) was added to Columns 11, 12, 23, 24, rows A-H for the maximum signal control and 1 ul of SAH, a known product and inhibitor of SMYD3, was added to columns 11, 12, 23, 24, rows I-P for the minimum signal control. A cocktail (40 ul) containing the SMYD3 enzyme was added by Multidrop Combi (Thermo-Fisher). The compounds were allowed to incubate with SMYD3 for 30 min at room temperature, then a cocktail (10 ul) containing SAM and MEKK2 was added to initiate the reaction (final volume=51 ul). […] The assays were stopped by the addition of non-radiolabeled SAM (10 ul) to a final concentration of 100 uM, which dilutes the ^3H-SAM to a level where its incorporation into MEKK2 is no longer detectable. Radiolabeled MEKK2 was detected using a scintillation proximity assay (SPA). 10 uL of a 10 mg/mL solution of SPA beads in 0.5 M citric acid was added and the plates centrifuged at 600 rpm for 1 min to precipitate the radiolabeled MEKK2 onto the SPA beads. The plates were then read in a PerkinElmer TopCount plate reader to measure the quantity of ^3H-labeled MEKK2 as disintegrations per minute (dpm) or alternatively, referred to as counts per minute (cpm).
`C[C@H](N)CC(=O)NC[C@H](Cc1ccc(O)c(I)c1)C(=O)N1CCC(NC(=O)c2cc(C3CC3)on2)CC1` [compound 33, N-(1-((S)-3-((S)-3-aminobutanamido)-2-(4-hydroxy-3-iodobenzyl)propanoyl)piperidin-4-yl)-5-cyclopropylisoxazole-3-carboxamide]: the half-inhibitory concentration (IC50) came out at 0.473 µM.

Regarding `NCCC(=O)NC[C@@H](Cc1ccc(O)c(I)c1)C(=O)N1CCC(NC(=O)c2cc(C3CC3)on2)CC1` [compound 34, (R)-N-(1-(3-(3-aminopropanamido)-2-(4-hydroxy-3-iodobenzyl)propanoyl)piperidin-4-yl)-5-cyclopropylisoxazole-3-carboxamide], the IC50 was found to be 1.64 µM.

Consider `NCCC(=O)NC[C@H](Cc1ccc(O)c(I)c1)C(=O)N1CCC(NC(=O)c2cc(C3CC3)on2)CC1` [compound 35, (S)-N-(1-(3-(3-aminopropanamido)-2-(4-hydroxy-3-iodobenzyl)propanoyl)piperidin-4-yl)-5-cyclopropylisoxazole-3-carboxamide], for which the IC50 worked out at 0.117 µM.

For `NCC(=O)NC[C@@H](Cc1ccc(O)c(I)c1)C(=O)N1CCC(NC(=O)c2cc(C3CC3)on2)CC1` [compound 36, (R)-N-(1-(3-(2-aminoacetamido)-2-(4-hydroxy-3-iodobenzyl)propanoyl)piperidin-4-yl)-5-cyclopropylisoxazole-3-carboxamide], the IC50 amounted to 9.41 µM.

For the molecule `NCC(=O)NC[C@H](Cc1ccc(O)c(I)c1)C(=O)N1CCC(NC(=O)c2cc(C3CC3)on2)CC1` [compound 37, (S)-N-(1-(3-(2-aminoacetamido)-2-(4-hydroxy-3-iodobenzyl)propanoyl)piperidin-4-yl)-5-cyclopropylisoxazole-3-carboxamide], the IC50 came out at 0.623 µM.

On to `Cc1ccc(C[C@H](CN)C(=O)N2CCC(NC(=O)c3cc(C4CC4)on3)CC2)cc1O` [compound 38, (R)-N-(1-(3-amino-2-(3-hydroxy-4-methylbenzyl)propanoyl)piperidin-4-yl)-5-cyclopropylisoxazole-3-carboxamide], for which the IC50 turned out to be 0.518 µM.

As to `Cc1ccc(C[C@@H](CN)C(=O)N2CCC(NC(=O)c3cc(C4CC4)on3)CC2)cc1O` [compound 39, (S)-N-(1-(3-amino-2-(3-hydroxy-4-methylbenzyl)propanoyl)piperidin-4-yl)-5-cyclopropylisoxazole-3-carboxamide], the half-inhibitory concentration (IC50) was found to be 14 µM.

`NCCCN1CCC(NC(=O)c2cc(C3CC3)on2)CC1` [compound 40, N-(1-(3-aminopropyl)piperidin-4-yl)-5-cyclopropylisoxazole-3-carboxamide]: the IC50 amounted to 3.16 µM.

In the case of `C[C@@H](N)C(=O)NC[C@@H](Cc1ccc(O)c(I)c1)C(=O)N1CCC(NC(=O)c2cc(C3CC3)on2)CC1` [compound 42, N-(1-((R)-3-((R)-2-aminopropanamido)-2-(4-hydroxy-3-iodobenzyl)propanoyl)piperidin-4-yl)-5-cyclopropylisoxazole-3-carboxamide], the IC50 is 8.39 µM.

In the case of `C[C@@H](N)C(=O)NC[C@H](Cc1ccc(O)c(I)c1)C(=O)N1CCC(NC(=O)c2cc(C3CC3)on2)CC1` [compound 43, N-(1-((S)-3-((R)-2-aminopropanamido)-2-(4-hydroxy-3-iodobenzyl)propanoyl)piperidin-4-yl)-5-cyclopropylisoxazole-3-carboxamide], the IC50 is 1.23 µM.

For the molecule `C[C@@H](N)CC(=O)NC[C@@H](Cc1ccc(O)c(I)c1)C(=O)N1CCC(NC(=O)c2cc(C3CC3)on2)CC1` [compound 44, N-(1-((R)-3-((R)-3-aminobutanamido)-2-(4-hydroxy-3-iodobenzyl)propanoyl)piperidin-4-yl)-5-cyclopropylisoxazole-3-carboxamide], the IC50 amounted to 13.8 µM.

`C[C@@H](N)CC(=O)NC[C@H](Cc1ccc(O)c(I)c1)C(=O)N1CCC(NC(=O)c2cc(C3CC3)on2)CC1` [compound 45, N-(1-((S)-3-((R)-3-aminobutanamido)-2-(4-hydroxy-3-iodobenzyl)propanoyl)piperidin-4-yl)-5-cyclopropylisoxazole-3-carboxamide]: the 50% inhibitory concentration (IC50) was 0.479 µM.

For `C[C@H]1CN(C(=O)[C@H](N)Cc2ccc(O)cc2)CCC1NC(=O)c1cc(C2CC2)on1` (stereo partly drawn) [compound 47, N-((3S)-1-(D-tyrosyl)-3-methylpiperidin-4-yl)-5-cyclopropylisoxazole-3-carboxamide], the IC50 is 14.9 µM.

Take `C[C@@H]1CN(C(=O)[C@H](N)Cc2ccc(O)cc2)CCC1NC(=O)c1cc(C2CC2)on1` (stereo partly drawn) [compound 48, N-((3R)-1-(D-tyrosyl)-3-methylpiperidin-4-yl)-5-cyclopropylisoxazole-3-carboxamide]: the IC50 worked out at 14.9 µM.

For the molecule `C[C@H]1CN(C(=O)CN)CCC1NC(=O)c1cc(C2CC2)on1` (stereo partly drawn) [compound 49, 5-cyclopropyl-N-((3S)-1-glycyl-3-methylpiperidin-4-yl)isoxazole-3-carboxamide], the IC50 amounted to 37.2 µM.

As to `C[C@@H]1CN(C(=O)CN)CC[C@H]1NC(=O)c1cc(C2CC2)on1` [compound 50, 5-cyclopropyl-N-((3R,4R)-1-glycyl-3-methylpiperidin-4-yl)isoxazole-3-carboxamide], the IC50 stood at 9.72 µM.

With `C[C@@H]1CN(C(=O)CN)CC[C@@H]1NC(=O)c1cc(C2CC2)on1` [compound 51, 5-cyclopropyl-N-((3R,4S)-1-glycyl-3-methylpiperidin-4-yl)isoxazole-3-carboxamide], the IC50 was found to be 12.7 µM.

As to `C[C@H]1CC(NC(=O)c2cc(C3CC3)on2)CCN1C(=O)CN` (stereo partly drawn) [compound 52, 5-cyclopropyl-N-((2S)-1-glycyl-2-methylpiperidin-4-yl)isoxazole-3-carboxamide], the IC50 is 32.5 µM.

For the molecule `C[C@@H]1C[C@@H](NC(=O)c2cc(C3CC3)on2)CCN1C(=O)CC1CCNCC1` [compound 53, 5-cyclopropyl-N-((2R,4S)-2-methyl-1-(2-(piperidin-4-yl)acetyl)piperidin-4-yl)isoxazole-3-carboxamide], the IC50 was 0.862 µM.

As to `C[C@H]1C[C@@H](NC(=O)c2cc(C3CC3)on2)CCN1C(=O)CC1CCNCC1` [compound 54, 5-cyclopropyl-N-((2S,4S)-2-methyl-1-(2-(piperidin-4-yl)acetyl)piperidin-4-yl)isoxazole-3-carboxamide], the IC50 was 2.08 µM.

Consider `C[C@@H]1C[C@H](NC(=O)c2cc(C3CC3)on2)CCN1C(=O)CC1CCNCC1` [compound 55, 5-cyclopropyl-N-((2R,4R)-2-methyl-1-(2-(piperidin-4-yl)acetyl)piperidin-4-yl)isoxazole-3-carboxamide], for which the IC50 was determined as 0.681 µM.

As to `C[C@@H]1C[C@@H](NC(=O)c2cc(C3CC3)on2)CCN1C(=O)[C@H]1CC[C@H](N)CC1` [compound 58, N-((2R,4S)-1-((1r,4R)-4-aminocyclohexane-1-carbonyl)-2-methylpiperidin-4-yl)-5-cyclopropylisoxazole-3-carboxamide], the 50% inhibitory concentration (IC50) amounted to 1.4 µM.

Turning to `C[C@H]1C[C@@H](NC(=O)c2cc(C3CC3)on2)CCN1C(=O)[C@H]1CC[C@H](N)CC1` [compound 59, N-((2S,4S)-1-((1r,4S)-4-aminocyclohexane-1-carbonyl)-2-methylpiperidin-4-yl)-5-cyclopropylisoxazole-3-carboxamide], the concentration for half-maximal inhibition (IC50) was determined as 7.97 µM.

Take `C[C@H]1C[C@H](NC(=O)c2cc(C3CC3)on2)CCN1C(=O)[C@H]1CC[C@H](N)CC1` [compound 60, N-((2S,4R)-1-((1r,4S)-4-aminocyclohexane-1-carbonyl)-2-methylpiperidin-4-yl)-5-cyclopropylisoxazole-3-carboxamide]: the half-inhibitory concentration (IC50) came out at 1.41 µM.
